These results are taken from patent publication US20050089554A1, “Apparatus and method for enhancing transdermal drug delivery” (priority 2003, published 2005).

Series [1] can be described thus: Desmopressin flux through skin (microprojection solid film system and gel pack), from urinary excretion of tritium. It counts as in vivo, HGPs. The conditions noted are these: 5 mg tritiated desmopressin solid film, 2% HEC gel pack; 1 h and 24 h; FIG. 20. On the procedure:
An experiment was conducted to test the concept of the hydratable system using the peptide desmopressin. A system similar to that presented in Example 2 was provided.
The system included a 2 cm^2 solid film containing 5 mg tritiated desmopressin. The thin film was prepared by casting a 20 mil thick aqueous solution comprised of 10 wt. % HPMC 2910 USP and 20 wt. % glycerol. The film was dried and punched into 2 cm^2 discs. Each disc was imbibed with a 20 wt. % ^3H desmopressin solution and subsequently dried. The solid film was subsequently disposed proximate the top surface of the microprojection member. The gel pack or gel reservoir contained 0.120 mL of 2% HEC (NATROSOL® 250 HHX) in water.
(§1) Following application of the microprojection solid film system in HGPs, the gel pack was placed on top of the microprojection member, as illustrated in FIG. 12. At 1 h and 24 h after application, three (3) systems from each group of HGPs were removed and the residual drug washed form the skin. The amount of the drug penetrated during these times intervals was determined by measuring urinary excretion of tritium (previous studies had shown that in HGPs, 71% of ^3H desmopressin injected intravenously is excreted in urine).

Series [2] can be described thus: Urinary excretion of 3H desmopressin injected intravenously (previous studies). Type of series: in vivo. The settings on record: hairless, urine, iv, total radioactivity, injected intravenously in HGPs, read-out: fraction excreted in urine. On the procedure: as §1

As to `NC(=O)CC[C@@H]1NC(=O)[C@H](Cc2ccccc2)NC(=O)[C@H](Cc2ccc(O)cc2)NC(=O)CCSSC[C@@H](C(=O)N2CCC[C@H]2C(=O)N[C@H](CCCN=C(N)N)C(=O)NCC(N)=O)NC(=O)[C@H](CC(N)=O)NC1=O` [desmopressin], the “flux through the skin, time dependence” value in series [1] is listed as “time dependant flux”. The dose excreted in series [2] was 71%.
